Source: PubChem BioAssay (NCI)
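Five concentrations, 48 hours, 96-well plates. Abbreviation: GI50, concentration required for 50% inhibition of growth. TGI denotes the concentration required for complete inhibition of growth.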

Tests used:
Experiment in all cases: NCI-60 cell line screen, 48 h
UACC-62 melanoma = tested on: UACC-62 melanoma
MALME-3M melanoma = tested on: MALME-3M melanoma
A498 renal = tested on: A498 renal
OVCAR-5 ovarian = tested on: OVCAR-5 ovarian
OVCAR-8 ovarian = tested on: OVCAR-8 ovarian
HCT-15 colon = tested on: HCT-15 colon
SF-539 CNS = tested on: SF-539 CNS
MOLT-4 leukemia = tested on: MOLT-4 leukemia
SF-295 CNS = tested on: SF-295 CNS
BT-549 breast = tested on: BT-549 breast
UACC-257 melanoma = tested on: UACC-257 melanoma
UO-31 renal = tested on: UO-31 renal
K-562 leukemia = tested on: K-562 leukemia
ACHN renal = tested on: ACHN renal
786-0 renal = tested on: 786-0 renal
SK-OV-3 ovarian = tested on: SK-OV-3 ovarian
SK-MEL-2 melanoma = tested on: SK-MEL-2 melanoma
DU-145 prostate = tested on: DU-145 prostate
SK-MEL-28 melanoma = tested on: SK-MEL-28 melanoma
OVCAR-3 ovarian = tested on: OVCAR-3 ovarian
RXF 393 renal = tested on: RXF 393 renal
PC-3 prostate = tested on: PC-3 prostate
M14 melanoma = tested on: M14 melanoma
NCI/ADR-RES ovarian = tested on: NCI/ADR-RES ovarian
HOP-62 NSCLC = tested on: HOP-62 NSCLC
TK-10 renal = tested on: TK-10 renal
HL-60(TB) leukemia = tested on: HL-60(TB) leukemia
RPMI-8226 leukemia = tested on: RPMI-8226 leukemia
HOP-92 NSCLC = tested on: HOP-92 NSCLC
SK-MEL-5 melanoma = tested on: SK-MEL-5 melanoma
SR leukemia = tested on: SR leukemia
CCRF-CEM leukemia = tested on: CCRF-CEM leukemia
SNB-75 CNS = tested on: SNB-75 CNS
SW-620 colon = tested on: SW-620 colon
IGROV1 ovarian = tested on: IGROV1 ovarian
T-47D breast = tested on: T-47D breast
SNB-19 CNS = tested on: SNB-19 CNS
MDA-MB-435 = tested on: MDA-MB-435
NCI-H23 lung = tested on: NCI-H23 lung
HS 578T breast = tested on: HS 578T breast
COLO 205 colon = tested on: COLO 205 colon
NCI-H460 lung = tested on: NCI-H460 lung
OVCAR-4 ovarian = tested on: OVCAR-4 ovarian
HCC-2998 colon = tested on: HCC-2998 colon
CAKI-1 renal = tested on: CAKI-1 renal
HT29 colon = tested on: HT29 colon
SN12C renal = tested on: SN12C renal
HCT-116 colon = tested on: HCT-116 colon
LOX IMVI melanoma = tested on: LOX IMVI melanoma
EKVX NSCLC = tested on: EKVX NSCLC
A549 NSCLC = tested on: A549 NSCLC
SF-268 CNS = tested on: SF-268 CNS
NCI-H522 lung = tested on: NCI-H522 lung
KM12 colon = tested on: KM12 colon
NCI-H226 lung = tested on: NCI-H226 lung
U251 CNS = tested on: U251 CNS
MDA-MB-231 breast = tested on: MDA-MB-231 breast

Work on `C1CCC([PH+](C2CCCCC2)C2CCCCC2[PH+](C2CCCCC2)C2CCCCC2)CC1.[Au].[CH-]1CCCCC1C1CCCC[N-]1` (stereo unspecified) yielded a GI50 (UACC-62 melanoma) of 0.254 µM, a TGI (UACC-62 melanoma) of 0.979 µM and a GI50 (MALME-3M melanoma) of 0.208 µM. It also gave a TGI (MALME-3M melanoma) of 0.844 µM, a GI50 (A498 renal) of 0.122 µM and a TGI (A498 renal) of 0.581 µM. The GI50 (OVCAR-5 ovarian) was 0.377 µM, the TGI (OVCAR-5 ovarian) was 1.79 µM and the GI50 (OVCAR-8 ovarian) was 0.278 µM. The TGI (OVCAR-8 ovarian) was over 100 µM, the GI50 (HCT-15 colon) was 1.5 µM and the TGI (HCT-15 colon) was 3.03 µM. The GI50 (SF-539 CNS) was 0.337 µM, the TGI (SF-539 CNS) was 1.28 µM and the GI50 (MOLT-4 leukemia) was 0.366 µM. It also gave a TGI (MOLT-4 leukemia) of over 100 µM, a GI50 (SF-295 CNS) of 0.256 µM and a TGI (SF-295 CNS) of 0.901 µM. For the same compound, the GI50 (BT-549 breast) was 0.294 µM, the TGI (BT-549 breast) was 1.36 µM and the GI50 (UACC-257 melanoma) was 0.329 µM. For the same compound, the TGI (UACC-257 melanoma) was 2.24 µM, the GI50 (UO-31 renal) was 1.36 µM and the TGI (UO-31 renal) was 2.69 µM. The GI50 (K-562 leukemia) was 0.229 µM, the TGI (K-562 leukemia) was over 100 µM and the GI50 (ACHN renal) was 1 µM. It also gave a TGI (ACHN renal) of 2.17 µM, a GI50 (786-0 renal) of 0.43 µM and a TGI (786-0 renal) of 1.9 µM. The GI50 (SK-OV-3 ovarian) was 0.275 µM, the TGI (SK-OV-3 ovarian) was 1.14 µM and the GI50 (SK-MEL-2 melanoma) was 0.351 µM. For the same compound, the TGI (SK-MEL-2 melanoma) was 1.52 µM, the GI50 (DU-145 prostate) was 0.401 µM and the TGI (DU-145 prostate) was 2.44 µM. For the same compound, the GI50 (SK-MEL-28 melanoma) was 0.434 µM, the TGI (SK-MEL-28 melanoma) was 1.79 µM and the GI50 (OVCAR-3 ovarian) was 0.286 µM. For the same compound, the TGI (OVCAR-3 ovarian) was 1.1 µM, the GI50 (RXF 393 renal) was 0.278 µM and the TGI (RXF 393 renal) was 1.18 µM. For the same compound, the GI50 (PC-3 prostate) was 0.249 µM, the TGI (PC-3 prostate) was 5.26 µM and the GI50 (M14 melanoma) was 0.425 µM. For the same compound, the TGI (M14 melanoma) was 2.27 µM, the GI50 (NCI/ADR-RES ovarian) was 2.97 µM and the TGI (NCI/ADR-RES ovarian) was over 100 µM. It also gave a GI50 (HOP-62 NSCLC) of 0.314 µM, a TGI (HOP-62 NSCLC) of 1.89 µM and a GI50 (TK-10 renal) of 0.463 µM. The TGI (TK-10 renal) was 1.86 µM, the GI50 (HL-60(TB) leukemia) was 0.272 µM and the TGI (HL-60(TB) leukemia) was 0.826 µM. The GI50 (RPMI-8226 leukemia) was 0.132 µM, the TGI (RPMI-8226 leukemia) was over 100 µM and the GI50 (HOP-92 NSCLC) was 0.241 µM. The TGI (HOP-92 NSCLC) was 1.14 µM, the GI50 (SK-MEL-5 melanoma) was 0.179 µM and the TGI (SK-MEL-5 melanoma) was 0.332 µM. The GI50 (SR leukemia) was 0.392 µM, the TGI (SR leukemia) was over 100 µM and the GI50 (CCRF-CEM leukemia) was 0.426 µM. For the same compound, the TGI (CCRF-CEM leukemia) was over 100 µM, the GI50 (SNB-75 CNS) was 0.194 µM and the TGI (SNB-75 CNS) was 0.833 µM.

`O=C(Nc1ccncc1)C(=O)c1cn(S(=O)(=O)c2ccc(Br)cc2)c2ccccc12` was tested, and the GI50 (SW-620 colon) was 4.18 µM, the TGI (SW-620 colon) was over 100 µM and the GI50 (IGROV1 ovarian) was 8.55 µM. For the same compound, the TGI (IGROV1 ovarian) was over 100 µM, the GI50 (UACC-62 melanoma) was 3.79 µM and the TGI (UACC-62 melanoma) was over 100 µM. For the same compound, the GI50 (T-47D breast) was 7.74 µM, the TGI (T-47D breast) was over 100 µM and the GI50 (MALME-3M melanoma) was 24.2 µM. The TGI (MALME-3M melanoma) was over 100 µM, the GI50 (SNB-19 CNS) was 14.1 µM and the TGI (SNB-19 CNS) was over 100 µM. For the same compound, the GI50 (A498 renal) was 3.17 µM, the TGI (A498 renal) was over 100 µM and the GI50 (MDA-MB-435) was 0.459 µM. The TGI (MDA-MB-435) was 3.49 µM, the GI50 (NCI-H23 lung) was 4.74 µM and the TGI (NCI-H23 lung) was over 100 µM. For the same compound, the GI50 (OVCAR-5 ovarian) was over 100 µM, the TGI (OVCAR-5 ovarian) was over 100 µM and the GI50 (OVCAR-8 ovarian) was 5.9 µM. It also gave a TGI (OVCAR-8 ovarian) of over 100 µM, a GI50 (HCT-15 colon) of 3.81 µM and a TGI (HCT-15 colon) of over 100 µM. The GI50 (HS 578T breast) was over 100 µM, the TGI (HS 578T breast) was over 100 µM and the GI50 (COLO 205 colon) was 27.7 µM. The TGI (COLO 205 colon) was over 100 µM, the GI50 (NCI-H460 lung) was 11.3 µM and the TGI (NCI-H460 lung) was over 100 µM. The GI50 (SF-539 CNS) was 8.03 µM, the TGI (SF-539 CNS) was over 100 µM and the GI50 (OVCAR-4 ovarian) was 15.1 µM. The TGI (OVCAR-4 ovarian) was over 100 µM, the GI50 (HCC-2998 colon) was 23.6 µM and the TGI (HCC-2998 colon) was over 100 µM. The GI50 (CAKI-1 renal) was 4.44 µM, the TGI (CAKI-1 renal) was over 100 µM and the GI50 (SF-295 CNS) was 2.26 µM. The TGI (SF-295 CNS) was over 100 µM, the GI50 (HT29 colon) was 2.82 µM and the TGI (HT29 colon) was over 100 µM. It also gave a GI50 (BT-549 breast) of 11.8 µM, a TGI (BT-549 breast) of over 100 µM and a GI50 (UACC-257 melanoma) of 7.62 µM. It also gave a TGI (UACC-257 melanoma) of over 100 µM, a GI50 (UO-31 renal) of over 100 µM and a TGI (UO-31 renal) of over 100 µM. For the same compound, the GI50 (K-562 leukemia) was 2.49 µM, the TGI (K-562 leukemia) was over 100 µM and the GI50 (SN12C renal) was 43.5 µM. The TGI (SN12C renal) was over 100 µM, the GI50 (ACHN renal) was 9.13 µM and the TGI (ACHN renal) was over 100 µM. For the same compound, the GI50 (786-0 renal) was 46.3 µM, the TGI (786-0 renal) was over 100 µM and the GI50 (SK-OV-3 ovarian) was 19.9 µM. The TGI (SK-OV-3 ovarian) was over 100 µM, the GI50 (HCT-116 colon) was 3.71 µM and the TGI (HCT-116 colon) was over 100 µM. For the same compound, the GI50 (LOX IMVI melanoma) was 7.49 µM, the TGI (LOX IMVI melanoma) was over 100 µM and the GI50 (SK-MEL-2 melanoma) was 32 µM. It also gave a TGI (SK-MEL-2 melanoma) of over 100 µM, a GI50 (DU-145 prostate) of 19 µM and a TGI (DU-145 prostate) of over 100 µM. For the same compound, the GI50 (SK-MEL-28 melanoma) was 4.77 µM, the TGI (SK-MEL-28 melanoma) was over 100 µM and the GI50 (EKVX NSCLC) was 3.81 µM. For the same compound, the TGI (EKVX NSCLC) was over 100 µM, the GI50 (A549 NSCLC) was 15.6 µM and the TGI (A549 NSCLC) was over 100 µM. The GI50 (SF-268 CNS) was 8.47 µM, the TGI (SF-268 CNS) was over 100 µM and the GI50 (NCI-H522 lung) was 1.94 µM. The TGI (NCI-H522 lung) was over 100 µM, the GI50 (OVCAR-3 ovarian) was 4.54 µM and the TGI (OVCAR-3 ovarian) was over 100 µM. For the same compound, the GI50 (RXF 393 renal) was 7.28 µM, the TGI (RXF 393 renal) was over 100 µM and the GI50 (PC-3 prostate) was 8.87 µM. For the same compound, the TGI (PC-3 prostate) was over 100 µM, the GI50 (M14 melanoma) was 5.74 µM and the TGI (M14 melanoma) was over 100 µM. The GI50 (NCI/ADR-RES ovarian) was 2.65 µM, the TGI (NCI/ADR-RES ovarian) was over 100 µM and the GI50 (HOP-62 NSCLC) was 3.67 µM. For the same compound, the TGI (HOP-62 NSCLC) was 38.7 µM, the GI50 (KM12 colon) was 3.88 µM and the TGI (KM12 colon) was over 100 µM. It also gave a GI50 (TK-10 renal) of 15.1 µM, a TGI (TK-10 renal) of over 100 µM and a GI50 (HL-60(TB) leukemia) of 2.41 µM. It also gave a TGI (HL-60(TB) leukemia) of over 100 µM, a GI50 (RPMI-8226 leukemia) of 4.56 µM and a TGI (RPMI-8226 leukemia) of over 100 µM. The GI50 (HOP-92 NSCLC) was 2.14 µM, the TGI (HOP-92 NSCLC) was 22.4 µM and the GI50 (NCI-H226 lung) was 20.9 µM. It also gave a TGI (NCI-H226 lung) of over 100 µM, a GI50 (U251 CNS) of 6.41 µM and a TGI (U251 CNS) of over 100 µM. It also gave a GI50 (SK-MEL-5 melanoma) of 3.5 µM, a TGI (SK-MEL-5 melanoma) of 37.5 µM and a GI50 (CCRF-CEM leukemia) of 7.67 µM. It also gave a TGI (CCRF-CEM leukemia) of over 100 µM, a GI50 (MDA-MB-231 breast) of 10.2 µM and a TGI (MDA-MB-231 breast) of 83 µM. It also gave a GI50 (SNB-75 CNS) of 4 µM and a TGI (SNB-75 CNS) of 41.7 µM.
